Where “and” joins values, the source holds several entries; their conditions need not be identical. Equal values may be shown once.
Experiments:
Chick growth study = assay type: in vivo, broiler chicks
Experimental: 512 day old broiler chicks, selected for weight, health and sex, are housed in an environmentally controlled room with temperature at 37.7° and humidity at 40%. Chicks are fed ad libitum. Water is offered ad libitum. A corn or, preferably rye, basal ration is fed during the acclimation period (days 1 and 2). It is, then, mixed with the compound under test or used as a control on days 3-17. Either 8 or 16 chicks are used for each test or control group.

[1] = tested on: fermentation in the digestive tract (swine ileal/cecal inoculum); experiment: In vitro swine procedure (fistula test; incubation of filtered ileal/cecal inoculum); design: species or system swine (Yorkshire barrow); settings: 5 hours at 37°

CC1(C)NN=C(c2ccccn2)N1 [5,5-Dimethyl-3-(2'-pyridyl)-4,5-dihydro-1H-triazole]
Feed/Gain (3-17 day) (Chick growth study; 9 ppm in feed): 97.2 % of Control
Weight (17 day) (Chick growth study; 9 ppm in feed): 103.5 % of Control
Feed/Gain (3-17 day) (Chick growth study; 50 ppm in feed): 103.1 % of Control
Weight (17 day) (Chick growth study; 50 ppm in feed): 97.7 % of Control
GLU (glucose) ([1]; 166.67 ppm): 105 % of control values

c1ccc(C2=NCCN2)nc1 [2-(2-Pyridyl)-imidazoline]
Feed/Gain (3-17 day) (Chick growth study; 50 ppm in feed): 93.0 % of Control
Weight (17 day) (Chick growth study; 50 ppm in feed): 106.2 % of Control

Virginiamycin [reference compound]
Feed/Gain (3-17 day) (Chick growth study; 10 ppm in feed (rye)): 96.5 % of Control
Weight (17 day) (Chick growth study; 10 ppm in feed (rye)): 107.1 % of Control
Feed/Gain (3-17 day) (Chick growth study; 10 ppm in feed): 100.4 % of Control
Weight (17 day) (Chick growth study; 10 ppm in feed): 97.7 % of Control
Feed/Gain (3-17 day) (Chick growth study; 50 ppm in feed): 88.5 % of Control
Weight (17 day) (Chick growth study; 50 ppm in feed): 127.8 % of Control
GLU (glucose) ([1]; 1.67 ppm): 131 % of control values
LYS (lysine) ([1]; 1.67 ppm): 134 % of control values
VFA (total of volatile fatty acids) ([1]; 1.67 ppm): 147 % of control values
GLU (glucose) ([1]; 16.67 ppm): 153 % of control values
LYS (lysine) ([1]; 16.67 ppm): 212 % of control values
VFA (total of volatile fatty acids) ([1]; 16.67 ppm): 85 % of control values
GLU (glucose) ([1]; 166.67 ppm): 153 % of control values
LYS (lysine) ([1]; 166.67 ppm): 289 % of control values
VFA (total of volatile fatty acids) ([1]; 166.67 ppm): 39 % of control values

Cc1nc(-c2ccccn2)no1
Feed/Gain (3-17 day) (Chick growth study; 8.5 ppm in feed): 99.2 % of Control
Weight (17 day) (Chick growth study; 8.5 ppm in feed): 102.3 % of Control
GLU (glucose) ([1]; 166.67 ppm): 113 % of control values
LYS (lysine) ([1]; 166.67 ppm): 110 % of control values

COC(=O)C1(C)NN=C(c2ccccn2)N1 (stereo not shown) [Methyl 5-methyl-3-(2'-pyridyl)-4,5-dihydro-1H-triazole-5-carboxylate]
Feed/Gain (3-17 day) (Chick growth study; 50 ppm in feed): 91.0 % of Control
Weight (17 day) (Chick growth study; 50 ppm in feed): 108.1 % of Control

CC1(O)CC(C(N)=O)N=C1c1ncccc1O (stereo not shown) [3,4-dihydro-4-hydroxy-5-(3-hydroxy-2-pyridinyl)-4-methyl-2H-pyrrole-2-carboxamide]
Feed/Gain (3-17 day) (Chick growth study; 4.5 ppm in feed): 98.4 % of Control
Weight (17 day) (Chick growth study; 4.5 ppm in feed): 101.0 % of Control
Feed/Gain (3-17 day) (Chick growth study; 25 ppm in feed): 92.6 % of Control and 99.9 % of Control
Weight (17 day) (Chick growth study; 25 ppm in feed): 109.4 % of Control and 108.5 % of Control
LYS (lysine) ([1]; 1.67 ppm): 75 % of control values
LYS (lysine) ([1]; 16.67 ppm): 82 % of control values
VFA (total of volatile fatty acids) ([1]; 16.67 ppm): 103 % of control values
LYS (lysine) ([1]; entry (a), 166.7 ppm): 136 % of control values
VFA (total of volatile fatty acids) ([1]; entry (a), 166.7 ppm): 26 % of control values
LYS (lysine) ([1]; entry (b), 166.7 ppm): 142 % of control values
VFA (total of volatile fatty acids) ([1]; entry (b), 166.7 ppm): 43 % of control values

NC(=NO)c1ccccn1 [2-Amidoximopyridine]
Feed/Gain (3-17 day) (Chick growth study; 10 ppm in feed): 97.0 % of Control and 101.2 % of Control
Weight (17 day) (Chick growth study; 10 ppm in feed): 108.5 % of Control and 99.2 % of Control
Feed/Gain (3-17 day) (Chick growth study; 50 ppm in feed): 97.3 % of Control
Weight (17 day) (Chick growth study; 50 ppm in feed): 103.0 % of Control
LAC (L-lactic acid) ([1]; 166.67 ppm): 111 % of control values
LYS (lysine) ([1]; 166.67 ppm): 99 % of control values
VFA (total of volatile fatty acids) ([1]; 166.67 ppm): 98 % of control values

— patent US4680304A, “Feed compositions containing 2-(α-pyridyl)-Δ^2 -heterocyclic compounds” (SmithKline Beckman Corporation, priority 1985, dated 1987)
